Results on 1 compound are retold here after US11046889B2, “Polymerizable compound and optically anisotropic body” (DIC Corporation, priority 2015, dated 2021).

A short description of this data set: Solubility check of 20 wt % solutions in organic solvents. Further details: key: A: the compound dissolves at room temperature; B: the compound does not dissolve at room temperature but dissolves when heated to 60° C.; the compound does not dissolve even when heated to 60° C. Conditions: room temperature or heated to 60° C. The data set is classed as physicochemical. As for the experimental part:
20 wt % solutions of each of the compounds to be evaluated in chloroform, trichloroethane, cyclopentanone, methyl ethyl ketone (MEK), methyl isobutyl ketone (MIBK), and toluene were prepared to check the solubilities of the compound to be evaluated.

As for `C=C(C)C(=O)OCCCCCCOc1ccc(OC(=O)C2CCC(COc3ccc(OCC4CCC(C(=O)Oc5ccc(OCCCCCCOC(=O)C(=C)C)cc5)CC4)c(/C=N/N(CCOCCOC)c4nc5ccccc5s4)c3)CC2)cc1` (stereo not drawn) [Compound I-16], for the setting “20 wt % solution in chloroform”, the “Results of Solubility Chloroform” value is recorded as “A”. In addition, the “Results of Solubility Cyclopentanone” value (20 wt % solution in cyclopentanone) is on record as “A”. For the same compound, the “Results of Solubility MEK” value (20 wt % solution in methyl ethyl ketone (MEK)) is reported as “B”. Besides, the “Results of Solubility MIBK” value (20 wt % solution in methyl isobutyl ketone (MIBK)) was “B”. Also, the “Results of Solubility Toluene” value (20 wt % solution in toluene) was “A”. Under “20 wt % solution in trichloroethane”, the “Results of Solubility Trichloroethane” value is “A”.
